Like-named read-outs stand apart in the source and are kept apart here.
Assays:
E[…] 1 = type: cell-based, polio enterovirus 1, SABIN strain; conditions: 32° C.
ADENOVIRUS Type 5 = assay: virucidal activity of BKF, AFNOR T72-180, molecular screening (Table 3); type: cell-based; conditions: 32° C.
Method: We have determined the virucide activity of tetradecyl-dimethyl-benzyl-ammonium fluoride (BKF) vis-a-vis vertebrate viruses in conformance with French Standard AFNOR T72-180, December 1989. This benzalkonium fluoride was diluted in solution in sterile distilled water at the following concentrations: 0.02, 0.01, 0.005% (weight divided by volume).
adenovirid.ae butted.: adenovirus type 5, cultivated on KB cell,
The water, the culture medium and the reagents are those recognised by Standard AFNOR T72-180. The titration of the virus is by reading the cytopathic test, following the method described in Standard AFNOR T72-180. The calculation of the infectious titration is by the FISHER and YATES method with the WYSHAK and DETRE tables. The results are given in number of infectious units per ml, or plaque-forming units per ml (PFU/ml).
The virucidal activity was then determined by the technique known as molecular screening, consisting of filtration on sephadex gel LH 20 and using subcytotoxic concentrations of benzalkonium fluoride. The virucidal activity was determined as a function of contact time between the benzalkonium fluoride and the viral strain. […] The virucidal activity of benzalkonium fluoride (BKF) is determined by the minimal concentration and minimal contact time with the virus which provoked a reduction of infectious titration of the viruses by a logarithmic factor of a least 4. […]

[1] = tested on: HERPES SIMPLEX VIRUS TYPE 1; assay: virucidal activity of BKF, AFNOR T72-180, molecular screening (Table 4); type: cell-based, Herpes Simplex Virus Type 1 (HSV 1); conditions: 32° C.
[2] = tested on: HERPES SIMPLEX VIRUS TYPE 2; assay: virucidal activity of BKF, AFNOR T72-180, molecular screening (Table 5); type: cell-based, Herpes Simplex Virus Type 2 (HSV 2); conditions: 32° C.
HIV-1 virus (LAI strain) [3] = assay: residual infectiousness of treated HIV-1 on activated human lymphocytes, reverse transcriptase activity; type: cell-based, HIV-1 (LAI strain)
HIV-1 virus (LAI strain) [4] = assay: residual infectiousness of treated HIV-1 on activated human lymphocytes, antigen P25 ELISA; type: cell-based, HIV-1 (LAI strain); conditions: 1/2 dilutions, REV7 (30 min) and REV8 (60 min) (FIG. 4)
[5] = tested on: activated human PBMC lymphocytes; assay: toxicity of residual BKF (sample REV4) on infectiousness test cells; type: cell-based; conditions: REV4: BKF 20 μg/ml diluted in NTE buffer and centrifuged
mice = assay: LD 50, unique administration, Behrens and Karber method, mice; type: in vivo, albino mouse
Method: The high toxicity of benzalkonium fluoride in unique administration in mice and guinea pigs was determined by the Behrens and Karber method, by intracardiac, intravenous and intraperitoneal injection. The animals used were young adult albino mice and albino guinea pigs. Ten animals were used for each dose administered, five males and five females. The benzalkonium fluoride was used in a 3 g/l isotonic solution of sterile apyrogenic sodium chloride. We observed the animals for 7 days after unique administration carried out using a sterile needle adapted to a syringe graduated in 1/10 ml to allow the treatment of each animal with an exact dose. The animals were weighed each day during the observation period.
The LD 50 (lethal dose 50) was determined.

Carre's disease = assay: treatment of dogs suffering from Carre's disease; type: in vivo, dog
Method: The invention was used to treat dogs suffering from Carre's disease. This disease, considered fatal and without treatment, is due to an ultravirus.
Twelve dogs were treated with one 10 ml ampoule of benzalkonium fluoride solution at 2.1 g/l for 20 kg of animal. The injection was given once per day for three days. The dogs also had associated treatment (vitamins, antibiotics, vaccines, etc.).

[6] = in vitro haemolysis of total blood, human; conditions: human, blood
human blood = assay: in vitro haemolysis of total blood, human
rabbit blood = assay: in vitro haemolysis of total blood, rabbit
guinea pig blood = assay: in vitro haemolysis of total blood, guinea pig
patient's blood = assay: haemolytic concentration on AIDS patients' blood before injection; conditions: solution used 2.1 g/l
dogs (beagles) = assay: local and general tolerance of intravenous administration in dogs, 28 days; conditions: injected intravenously
[7] = female German Pointer 12 kg, same treatment

CCCCCCCCCCCCCC[N+](C)(C)Cc1ccccc1.[F-] [benzalkonium fluoride, tetradecyl-dimethyl-benzyl-ammonium fluoride]
virucidal activity: minimal contact time (E[…] 1; 0.01% (m/V)): 30 min
Viral Titration (E[…] 1; 0.01% (m/V), 30 minutes): 0 PFU/ml
Viral Titration (E[…] 1; 0.01% (m/V), 60 minutes): 0 PFU/ml
Viral Titration (E[…] 1; 0.01% (m/V), 120 minutes): 0 PFU/ml
Viral Titration (E[…] 1; 0.02% (m/V), 120 minutes): 0 PFU/ml
virucidal activity: minimal concentration (reduction by logarithmic factor of at least 4) (E[…] 1; 30 minutes contact): 0.01 % (m/V)
virucidal activity: minimal contact time (ADENOVIRUS Type 5; 0.02% (m/V)): 120 min
virucidal activity: minimal concentration (reduction by logarithmic factor of at least 4) (ADENOVIRUS Type 5; 120 minutes contact): 0.02 % (m/V)
virucidal activity: minimal contact time ([1]; 0.01% (m/V)): 5 min
Viral Titration ([1]; 0.01% (m/V), 30 minutes): 0 PFU/ml
Viral Titration ([1]; 0.01% (m/V), 60 minutes): 0 PFU/ml
Viral Titration ([1]; 0.01% (m/V), 120 minutes): 0 PFU/ml
Viral Titration ([1]; 0.02% (m/V), 15 minutes): 0 PFU/ml
Viral Titration ([1]; 0.02% (m/V), 30 minutes): 0 PFU/ml
Viral Titration ([1]; 0.02% (m/V), 60 minutes): 0 PFU/ml
Viral Titration ([1]; 0.02% (m/V), 120 minutes): 0 PFU/ml
virucidal activity: minimal concentration (reduction by logarithmic factor of at least 4) ([1]; 5 minutes contact): 0.01 % (m/V)
virucidal activity: minimal contact time ([2]; 0.01% (m/V)): 15 min
Viral Titration ([2]; 0.01% (m/V), 60 minutes): 0 PFU/ml
Viral Titration ([2]; 0.01% (m/V), 120 minutes): 0 PFU/ml
Viral Titration ([2]; 0.02% (m/V), 15 minutes): 0 PFU/ml
Viral Titration ([2]; 0.02% (m/V), 30 minutes): 0 PFU/ml
Viral Titration ([2]; 0.02% (m/V), 60 minutes): 0 PFU/ml
Viral Titration ([2]; 0.02% (m/V), 120 minutes): 0 PFU/ml
virucidal activity: minimal concentration (reduction by logarithmic factor of at least 4) ([2]; 15 minutes contact): 0.01 % (m/V)
RT activity in culture supernatants (HIV-1 virus (LAI strain) [3]; 1/2 dilution of virus treated with BKF, second experiment (FIG. 2)): No RT activity was detected
reverse transcriptase activity in culture supernatants (HIV-1 virus (LAI strain) [3]; 1/10 dilution of virus treated with BKF 20 μg/ml for 30 or 60 minutes (FIG. 1)): no reverse transcriptase activity is revealed
log reduction at 20 µg/mL (HIV-1 virus (LAI strain) [3]; Human immunodeficiency virus 1, Lymphocyte, 20 μg/ml, activated human lymphocytes, read-out: loss of infectious capacity in the HIV-1 virus): 5
antigen P25 in lymphocyte supernatants (HIV-1 virus (LAI strain) [4]): negative
toxicity for the infectiousness test cells [5]: not toxic
LD 50 (mice; female mouse, intraperitoneal): 34.60 mg/mL
LD 50 (mice; female mouse, intravenous): 36.60 mg/mL
acute toxicity, overall (mice; intravenous, intraperitoneal or intracardiac injection, mice and guinea pigs): sufficiently low toxicity
LD 50 (mice; male mouse, intraperitoneal): 33.10 mg/mL
LD 50 (mice; male mouse, intravenous): 33.24 mg/mL
dogs with nervous symptoms (Carre's disease; five other dogs, generalised trembling): could not be treated
dogs saved (Carre's disease; of twelve dogs, 10 ml of 2.1 g/l per 20 kg once per day, three days, associated treatment): effective for seven dogs who were saved
total recovery (Carre's disease; seven dogs saved): 18 days
tolerance (parvovirus; dog, in vivo): excellent
normal eating (parvovirus; [7]): 4 days
total recovery confirmed (parvovirus; [7]): 18 days
total recovery (parvovirus; female German Shepherd 10 kg, 10 ml then 20 ml, associated treatment 8 days): 20 days
complete recovery (parvovirus; female Rottweiler 15 kg, two injections of 10 ml, 12 h apart): 18 days
recovery, days after start of treatment (parvovirus; male German Shepherd 20 kg, two injections at 12 h interval, 2.1 g/l): 6 days
normal eating (parvovirus; male Newfoundland 28 kg, after four days): eating normally
blood in urine and vomiting (parvovirus; male Newfoundland 28 kg, two injections of 10 ml, end of second day): the blood had disappeared from the urine and the dog no longer vomited
death (parvovirus; three puppies with violent evolutive gastro-enteritis, two injections at 12 h interval): Death occurred within two days
MNTC [6]: ≤ 20 µg/mL
haemolysis (human blood; 37.5 mg/l, man, guinea pig and rabbit blood): Not having noted h.ae butted.molysis
haemolysis (degree of red colouring) (human blood; 20 ppm or mg/l, 6 samples): 0
haemolysis (degree of red colouring) (human blood; 35 ppm or mg/l, 6 samples): 0
haemolysis (degree of red colouring) (human blood; 37.5 ppm or mg/l): 0
haemolysis (degree of red colouring) (human blood; 75 ppm or mg/l): +
haemolysis (degree of red colouring) (human blood; 150 ppm or mg/l): ++
haemolysis (degree of red colouring) (rabbit blood; 37.5 ppm or mg/l): 0
haemolysis (degree of red colouring) (rabbit blood; 75 ppm or mg/l): +
haemolysis (degree of red colouring) (rabbit blood; 150 ppm or mg/l): +++
haemolysis (degree of red colouring) (guinea pig blood; 37.5 ppm or mg/l): 0
haemolysis (degree of red colouring) (guinea pig blood; 75 ppm or mg/l): +
haemolysis (degree of red colouring) (guinea pig blood; 150 ppm or mg/l): ++++
haemolytic concentration on patient's blood (patient's blood): well above that of the solution used
toxic effect, overall (dogs (beagles)): no remarkable toxic effect

Reference: patent publication US5798391A, “Injectable solution of benzalkonium fluoride” (Aromafarm Limited, priority 1994, dated 1998)
